According to patent US8883512B1, “Method for diagnosing gestational diabetes, preeclampsia, and fetal growth restriction” (priority 2011, dated 2014):
Entries after “also recorded” stand apart in the source; their conditions may differ. Values belong to the compound of their own block, whether it stands above or below them.

Key:
[1] = better designed (low bias) trials of antioxidant supplements; cited from earlier work
[2] = system: pregnant Sprague-Dawley rats; assay: RAR-alpha antagonist Ro41-5253 in the STZ (75 mg/kg) model of gestational diabetes; assay type: in vivo, rat
Protocol: (§1) The specific aims of this second experiment were to test the hypothesis that complications associated with GDM could be ameliorated with the retinoic acid receptor-alpha (RAR-alpha) antagonist, Ro41-5253. On day 6 of gestation, Sprague-Dawley rats were randomly assigned to one of five groups: 1) saline-infused controls; 2) STZ, 75 mg/kg I.P.; 3) STZ, 50 mg/kg I.P.; 4) STZ, 75+Ro41-5253 (0.5 mg/kg I.P. daily for 10 d); or 5) STZ, 75+Ro41-5253 (1.0 mg/kg I.P. daily for 10 days). Ro41-5253 was provided as a gift from Roche. On day 19, after carotid artery catheters were implanted for measurement of arterial pressure, the animals were sacrificed, fetal and placental weights were determined, and blood samples were obtained to measure liver enzymes and glucose.

[3] = system: pregnant Sprague-Dawley rats; assay: Streptozotocin (STZ) animal model of gestational diabetes and preeclampsia: blood glucose, liver enzymes, arterial pressure, fetal and placental weights; assay type: in vivo, rat
Protocol: Pregnant Sprague-Dawley rats on day 6 of gestation were randomly assigned to STZ at 75 mg/kg I.P. or saline-infusion. On day 19, carotid artery catheters were implanted for measurement of arterial pressure, after which the animals were sacrificed, fetal and placental weights determined and blood samples obtained to measure liver enzymes and glucose. Subsequently, using the same procedure, a separate group of pregnant rats (n=10/group) was randomly assigned to receive STZ at 75 mg/kg I.P. or saline infusion. Serum concentrations of retinol, retinoic acid, and retinyl esters were determined in these animals by HPLC on Day 20. Retinoid toxicity was defined as the percentage of retinyl esters >10%.
as §1

[4] = STZ 75 mg/kg, I.P. Ro41-5253, listed as retinoid receptor antagonist

Compound: vitamin E
increased risk of mortality [1]: 4%

placental weights ([2]; STZ model, day 19): unaffected
Compound: CCCCCCCOc1cc2c(cc1/C(C)=C/c1ccc(C(=O)O)cc1)C(C)(C)CCS2(=O)=O [Ro41-5253]
effect on blood glucose following STZ ([2]; Ro41-5253 0.5 mg/kg I.P. daily for 10 d, STZ 75 mg/kg): not by the lower dose; also recorded: no effect | effect on blood glucose following STZ ([2]; Ro41-5253 1.0 mg/kg I.P. daily for 10 days, STZ 75 mg/kg): reduced; also recorded: decrease of approximately one-third | reduction of alkaline phosphatase levels induced by STZ ([2]; STZ 75 mg/kg, FIG. 3): about 20% | effect on alanine aminotransferase (ALT) elevation following STZ ([2]; STZ 75 mg/kg, I.P. Ro41-5253): markedly reduced (almost to control levels) | effect on aspartate aminotransferase (AST) elevation following STZ ([2]; STZ 75 mg/kg, I.P. Ro41-5253): markedly reduced (almost to control levels) | effect on alkaline phosphatase (AP) levels induced by STZ ([2]; STZ 75 mg/kg, I.P. Ro41-5253, listed as RAR-alpha antagonist): increased alkaline phosphatase levels in all animals, with or without | effect on alanine aminotransferase (ALT) elevation following STZ [2, 4]: markedly reduced | effect on aspartate aminotransferase (AST) elevation following STZ [2, 4]: markedly reduced | effect on trend towards increased arterial pressure ([2]; higher dose of STZ, doses investigated): did not appear to be ameliorated

Compound: CC1=C(/C=C/C(C)=C/C=C/C(C)=C/C=C/C=C(C)/C=C/C=C(C)/C=C/C2=C(C)CCCC2(C)C)C(C)(C)CCC1 [beta-carotene]
increased risk of mortality [1]: 7%

Compound: CN(N=O)C(=O)N[C@H]1C(O)O[C@H](CO)[C@@H](O)[C@@H]1O (mixture of isomers) [STZ, streptozotocin]
blood glucose levels (mean) ([3]; STZ 75 mg/kg I.P. on gestation day 6, blood on day 19, saline controls 104): 533 mg/dL | pup weights (mean) ([3]; STZ 75 mg/kg I.P., controls 4.6): 1.4 g | alanine aminotransferase (mean) ([3]; STZ 75 mg/kg I.P., controls 63): 326 U/L | alkaline phosphatase (mean) ([3]; STZ 75 mg/kg I.P., controls 123): 576 U/L | asparate aminotransferase levels (mean) ([3]; STZ 75 mg/kg I.P., controls 152): 842 U/L | placental weights ([3]; STZ, day 19): unaffected | fetus size versus controls ([3]; groups receiving 75 mg/kg of STZ alone): smaller than controls | arterial pressure ([3]; groups receiving both doses of STZ, P=0.1386): non-significant trend towards increased levels

Compound: vitamin A
increased risk of mortality [1]: 16%
